This note sets out measurements from US8829035B2, “Agent for treatment or prevention of diseases associated with activity of neurotrophic factors” (Sumitomo Chemical Company, Limited, priority 2009, dated 2014).

Each structure is given as a SMILES string.

Assay [1] relates to middle cerebral artery occlusion/reperfusion model. The experiment in a line: Middle cerebral artery occlusion/reperfusion model, infarct volume. It counts as in vivo, C57BL/6J mice. Conditions: mice, 90 minutes occlusion; 30 mg/kg via the caudate vein at 3, 24 and 48 hours after occlusion; brains taken 3 days after occlusion/reperfusion. As for the experimental part: A middle cerebral artery occlusion/reperfusion model was prepared by taking 8-week male C57BL/6J mice after 12 days convention rearing, and ligating the left and external common carotid arteries, then recanalizing them after the middle cerebral artery had been occluded for a period of 90 minutes. In this model, the compounds were administered at 3, 24, and 48 hours after occlusion as 30 mg/kg via the caudate vein. The animals were decapitated 3 days after the occlusion/reperfusion, the skulls were cut open from the cerebellar side and the brain was extracted. The extracted brains were fixed with Bouin's solution (pH 3.5-4.0). […] The infarct volumes were then calculated as shown below.
Optical microscope: digital images were taken using an optical microscope (object lens×1) that was fitted with a camera (MCD-350, Olympus). […] Based on the images pasted into the page mounts, the infarct areas (S, mm^2), lateral (left) infarct areas (mm^2) and lateral (right) non-infarct areas (MR, mm^2) were measured using an image analysis system (Win ROOF v. 5.6, Mitani), and the non-infarct areas for the left-side infarcts (ML, mm^2) [lateral (left) infarct area (mm^2)−infarct area (mm^2)] were calculated.
Using the equations below, the infarct volumes (SV, mm^3), non-infarct volumes for the left-side infarcts (MLV, mm^3), and the lateral (right) non-infarct volumes (MRV, mm^3) were calculated. […]

Assay [2] relates to rats with streptozotocin-induced diabetes. The experiment in a line: Motor nerve conduction velocity (MNCV) in sciatic nerves of rats with streptozotocin-induced diabetes. It is filed as in vivo, Slc:Wistar rats. Conditions: 5 mL/kg of 10 mg/mL drug solution orally once per day for 4 weeks, compared to solvent administration control group. As for the experimental part:
The preventative effect of the compounds on the prolongation of latency of the motor nerve conduction velocity (MNCV) were studied in the sciatic nerves of rats with streptozotocin-induced diabetes.
The groups were structured as a non-diabetes control group, a diabetes control group, and a drug administration group. After 8 days of convention rearing, the 8-week male Slc:Wistar rats in the respective groups were given 2 mL/kg of pH 4.5, 0.75 mmol/L citrate buffer solution (non-diabetes control group), or 2 mL/kg of a solution prepared from […] of streptozotocin (chemical name: N-(methylnitrosocarbamoyl)-α-D-glucosamine; manufacturer: SIGMA) in 0.75 mmol/L citrate buffer solution (diabetes control group and drug administration group), single administration in the caudate vein. After 4 more weeks of rearing, the animals in the non-diabetes control group and the diabetes control group were given 5 mL/kg of water for injection, while the animals in the drug administration group were given 5 mL/kg of a drug solution prepared from 10 mg/mL of the drug in water for injection. Administration for all groups was orally once per day for 4 weeks. MNCV measurements were carried out 3 times for each group. […]

In assay [3] the test system is activity of 200 ng/mL of NGF (NXF promoter-driven luciferase in PC12 cells). Nature of the assay: Luciferase reporter assay (NXF promoter) in PC12 cells: potentiation of NGF activity. It is filed as cell-based, rat. Also on record: key: +: Showed relatively weak potentiation (potentiation only exhibited at 10 μM); ++: Showed potentiation; +++: Showed particularly strong potentiation (2-fold or greater potentiation of the activity of 200 ng/mL of NGF at 1 μM). As for the experimental part: The forward primer 5′-[…]-3′ and the reverse primer 5′-[…]-3′ were prepared as the PCR primers according to the sequence information for the NXF gene genome sequence (Accession Nos. AB054577 and NC—000085), and the PCR method was used to isolate from approximately 5 kbp upstream from the translated region of the NXF gene promoter portion to the vicinity of the transcription start site. For this, 1 μg of mouse genomic DNA (Takara) was used as the template, and the 2-step PCR reaction was carried out for 35 cycles, the conditions for which were 95° C./1 m in the denaturing step, and 68° C./8 m in the annealing and extension steps, to obtain the PCR product. The NXF promoter fragment was inserted into the SmaI site of the pGL3 Basic vector (Promega) in the upstream of luciferase gene to prepare a reporter plasmid that would express the luciferase enzyme driven by the NXF promoter.
PC12 cells (available from the ATCC) were cultured using RPMI medium (GIBCO-BRL) with 5% FCS (GIBCO-BR) and 15% horse serum (GIBCO-BRL) added, and 1 mM in sodium pyruvate (GIBCO-BRL), at 37° C. in the presence of 5% CO2. After transfection in 10^6 of these PC12 cells for 2 days with 12 μg of the above-described reporter plasmid and 1 μg of pRC/RSV vector (Invitrogen) using the Lipofectamine 2000 reagent (Invitrogen), the medium was exchanged for fresh medium containing 40 mg/L of geneticin sulfate (GIBCO), and this was cultured continuously. Culturing was continued for approximately 1 month with medium exchange of the cultured medium containing 40 mg/L of geneticin sulfate (GIBCO) every several days, with the result that multiple colonies of the obtained cells were picked up. Among these, one of the colonies that induced luciferase activity in the presence of 40 ng/mL of NGF (Wako Pure Chemicals) was selected and used for the cells to evaluate the activity of the compounds below.
These cells were set up in 96-well plates with 80% confluence, and the luciferase reporter assay was conducted using the Promega Steady Glo luciferase assay kit. The procedure was carried out overnight (approx. 16 hours) using culture medium containing the compound, and the Steady Glo substrate solution was added to the cells in half-diluted in PBS after removal of all remaining medium containing the compound. After this was allowed to stand for 30 minutes, the respective quantity of light produced was measured with a luminometer (Envision Perkin Elmer).
The activity of the compounds for evaluation was measured as the potentiation of the activity of 200 ng/mL of NGF. For the experiment control wells, the negative control well had medium containing only a final concentration of 0.1% DMSO, the positive control well had medium containing a saturation concentration of NGF. In addition, a test well was set up containing 0.1% DMSO with 200 ng/mL of NGF added corresponding to a 0 compound concentration. When its luciferase activity was taken as a standard, the relative luciferase activity could be calculated for the test wells to which the compound solution (dissolved in DMSO and prepared to have a final DMSO concentration of 0.1%) had been added in addition to the 200 ng/mL of NGF, to find the potentiation of the activity of 200 ng/mL of NGF due to that compound.
For orientation: In a reporter assay the amount or activity of a reporter protein is the signal.

The mark [4] stands for this setting: Test Example 4, same manner as Test Example 1, relative luciferase activity vs 200 ng/mL NGF alone.

Regarding `Cc1nc2cc(-c3nc4ccccc4o3)ccc2n1C1CCOCC1` [Ex. 12, 5-(benzoxazol-2-yl)-2-methyl-1-(tetrahydropyran-4-yl)benzimidazole methanesulfonate], the infarct volume result in assay [1] is given as “reductions in the infarct volumes were confirmed”. Further, the “motor nerve conduction velocity (MNCV)” value in assay [2] was “recovery of motor nerve conduction velocity was observed”.
Turning to `Cc1nc2cc(-c3nc4ccccc4o3)ccc2n1C(CO)c1ccccc1` (centres unmarked) [Ex. 120, 5-(1-benzoxazol-2-yl)-1-(2-phenylethanol-2-yl)-2-methylbenzimidazole], the “Activity (potentiation of NGF activity)” value in assay [3] (setting [4]) is on record as “++”.
Still for that read-out and setting: the value for `Cc1nc2cc(-c3nc4ccccc4o3)ccc2n1CC(C)C(=O)OC(C)(C)C` (centres unmarked) [Ex. 121, 5-(benzoxazol-2-yl)-2-methyl-1-(2-tert-butoxycarbonyl-n-propyl)benzimidazole] was “++”; that for `Clc1ccccc1-c1nc2cc(-c3nc4ccccc4o3)ccc2n1C1CCOCC1` [Ex. 126, 5-(benzoxazol-2-yl)-2-(2-chlorophenyl)-1-(tetrahydropyran-4-yl)benzimidazole] was “++”.
As for `Cc1nc2cc(-c3nc4ccccc4o3)ccc2n1CCN(C)C` [Ex. 130], in assay [3] (setting [4]), the “Activity (potentiation of NGF activity)” value was “++”.
The same measure, in the same setting: next, `Cc1nc2cc(-c3nc4ccccc4o3)ccc2n1CCS(C)(=O)=O` [Ex. 132, 5-(benzoxazol-2-yl)-1-(2-(methylsulfonyl)ethyl)-2-methylbenzimidazole]: “++”; `CSCCc1nc2cc(-c3nc4ccccc4o3)ccc2n1C1CCOCC1` [Ex. 133, 5-(benzoxazol-2-yl)-2-(2-(methylthio)ethyl)-1-(tetrahydropyran-4-yl)benzimidazole]: “++”; `CS(=O)(=O)CCc1nc2cc(-c3nc4ccccc4o3)ccc2n1C1CCOCC1` [Ex. 134, 5-(benzoxazol-2-yl)-2-(2-(methylsulfonyl)ethyl)-1-(tetrahydropyran-4-yl)benzimidazole]: “++”.
For `CCCn1cnc2cc(-c3nc4cc(Cl)ccc4o3)ccc21` [Ex. 135, 5-(5-chlorobenzoxazol-2-yl)-1-n-propylbenzimidazole], the “Activity (potentiation of NGF activity)” value in assay [3] (setting [4]) is given as “++”.
Turning to `Cc1nc2cc(-c3nc4ccccc4o3)ccc2n1-c1ccccc1` [Syn. Ex. 3, 5-(benzoxazol-2-yl)-2-methyl-1-phenylbenzimidazole], the “Activity (potentiation of NGF activity)” value in assay [3] (Test Example 1, relative luciferase activity vs 200 ng/mL NGF alone, overnight (approx. 16 hours)) is on record as “++”.
